Experimental data taken from patent US20230374591A1, “METHODS AND AGENTS FOR TREATING, PREVENTING, DIAGNOSING, AND EVALUATING THERAPY FOR FIBROTIC, AUTOIMMUNE, AND INFLAMMATORY CONDITIONS” (THE TRUSTEES OF DARTMOUTH COLLEGE, priority 2020, published 2023).

How the values were obtained:
ACVR1C = assay: SCOT trial longitudinal PBC gene expression: ACVR1C; format: in vivo, human; conditions: PBCs of SSc patients, baseline to 48/54 months, imputed data
Excerpt: (§1) The SCOT trial compared the therapeutic outcomes of myeloablative CD34+selected autologous HSCT and CYC in severe diffuse SSc patients (for study design details of SCOT trial, see Sullivan K. M. et al., N Engl J Med. 2018 Jan. 4; 378(1): 35-47. doi: 10.1056/nejmoa1703327. [PMID: 29298160]). The trial provided gene expression in the peripheral blood cells (PBCs) from 30 SSc patients who completed HSCT treatment, 33 patients who completed CYC treatment, and 28 healthy controls (Franks J. M. et al., Ann Rheum Dis. 2020 Sep. 15; annrheumdis-2020-217033. doi: 10.1136/annrheumdis-2020-217033. Online ahead of print. [PMID: 32933919]). In the current study, Applicant analyzed the longitudinal expression profile of SCOT patients from baseline to 54 months. 20 month and 26 month data were merged (referred to as 20/26 months), and 48 month and 54 month data were merged (referred to as 48/54 months).
(§2) To reduce the statistical bias of downstream comparisons, Applicant applied seasonal adjustment and linear interpolation to impute those missing time points. The “imputeTS” R package was used. Patients with only baseline gene expression data and no longitudinal samples were not imputed (n=20; 32% of participants; 10 for cyclophosphamide and 10 for transplant).

Interleukin 6 (IL6) = assay: SCOT trial longitudinal PBC gene expression: IL6; format: in vivo, human; conditions: PBCs of SSc patients
Excerpt: as §1, §2

[1] = SCOT trial outcomes / event free survival analysis; format: in vivo, human; conditions: CYC arm, median split, P=0.04
Excerpt: as §1
Survival analysis was performed using the “survival” R package based on gene level data. Only the baseline gene expression data were considered for these analyses. Patients were divided into two groups using the median expression value of a given gene as cutoff Briefly, high expression group is patients' gene expression greater than or equal to the median value and low expression group is patients' gene expression lower than the median value. […]

TGF beta = conditions: cited from earlier work

O=P1(N(CCCl)CCCl)NCCCO1 (stereo not drawn) [CYC, cyclophosphamide]
ACVR1C expression over time (ACVR1C): flat trend
IL6 expression over time (Interleukin 6 (IL6)): increased
hazard ratio (HR) for EFS, higher vs lower baseline CLCF1 expression [1]: 3.15

fresolimumab: anti-TGF beta monoclonal antibody therapy
SSc biomarkers (TGF beta; SSc patients): decreased
clinical symptoms (TGF beta; SSc patients): improved
trial result (TGF beta; SSc): promising results
